Reference: publication PMC3795654, “Combinatorial Optimization of Cystine-Knot Peptides towards High-Affinity Inhibitors of Human Matriptase-1” (PLoS ONE, 2013)
Where two headings read alike, the source gives them in different places. Where a SMILES comes first, the peptide text is derived from it. Bridges are numbered along the chain shown (N, C = ends).

Experiments:
[1] = molecular target: T1, Bovine pancreatic trypsin (Bos taurus, UniProt P00760); test: Trypsin inhibition assay (substrate-independent Ki); assay type: biochemical; settings: substrate-independent Ki from Ki app (Morrison equation) and Km; 250 µM substrate; preincubation 30 min RT; read over 30 min; triplicate
T1 construct: purchased Sigma-Aldrich
T1 sequence (P00760 24-246): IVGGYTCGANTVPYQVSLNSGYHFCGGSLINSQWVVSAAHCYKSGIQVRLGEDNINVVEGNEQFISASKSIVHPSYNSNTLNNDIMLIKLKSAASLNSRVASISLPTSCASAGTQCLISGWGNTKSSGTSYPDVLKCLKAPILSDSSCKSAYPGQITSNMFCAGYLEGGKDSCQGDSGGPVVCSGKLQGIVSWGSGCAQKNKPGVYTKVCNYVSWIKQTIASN
Procedure: Bovine pancreatic trypsin, thrombin and uPA were purchased from Sigma-Aldrich and Hepsin from R&D Systems.
Measurements were carried out in triplicate using a Tecan Genios ELISA reader. The normalized residual proteolytic activity (v/v0) of proteases was determined using substrates Boc-QAR-pNA (250 µM, (pNA stands for para-nitro aniline), Boc-QAR-AMC (250 µM, AMC stands for amino-methyl coumarin) or Spectrozym tPA (250 µM, American Diagnostica, CH3SO2-D-CHT-Gly-Arg-pNA AcOH). Product formation was monitored after preincubation (30 min, RT) with inhibitor at different concentrations over 30 min by measuring the absorbance at 405 nm for pNA substrates or the fluorescence emission for AMC substrates (ex. 360 nm, em. 465 nm), respectively. Selectivity data were carried out in duplicates with final protease concentrations of uPA and thrombin of 5 nM. In case of hepsin 50 mM Tris/HCl pH 9.0 was used as assay buffer.
(§1) Apparent inhibition constants (Ki ^app) were calculated by fitting the Morrison equation (1) for tight-binding inhibitors to the relative reaction velocity using non-linear regression (Marquardt-Levenberg algorithm, Sigma Plot 11) [63].
(§2) Substrate-independent inhibition constants Ki were calculated from Ki ^app and Km of the enzyme according to (2).

Human matriptase-1 = molecular target: T2, Human matriptase-1 (Homo sapiens, UniProt Q9Y5Y6); test: Matriptase-1 inhibition assay (Ki / Ki app); assay type: biochemical
T2 construct: made in house
T2 sequence (Q9Y5Y6 615-855 limits assumed): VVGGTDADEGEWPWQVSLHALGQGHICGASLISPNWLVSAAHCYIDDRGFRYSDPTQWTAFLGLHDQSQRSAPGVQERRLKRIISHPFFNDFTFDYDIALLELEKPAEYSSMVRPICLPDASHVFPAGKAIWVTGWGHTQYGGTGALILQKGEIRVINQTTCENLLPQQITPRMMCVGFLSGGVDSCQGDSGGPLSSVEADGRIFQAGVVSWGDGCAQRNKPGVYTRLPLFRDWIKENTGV
Procedure: Human matriptase-1 was produced recombinantly, autocatalytically activated and purified as previously reported [35], [49], [51], [60].
Measurements were carried out in triplicate using a Tecan Genios ELISA reader.
as §1, §2

[2] = test system: uPA activation by matriptase-1 on the surface of PC-3 cells; test: Cell inhibition assay: uPA activation by matriptase-1 on the surface of PC-3 cells; assay type: cell-based, human; settings: control, concentration of 10 µM
Procedure: Human prostate cancer cells (PC-3, Merck KGaA) were cultured in DMEM medium with 10% FCS at 37°C and 5% CO2, washed with cation-free PBS and harvested by scraping. 1×10^5 cells were incubated in presence of 250 µM Bz-β-Ala-Gly-Arg-pNA·AcOH (American Diagnostica), which is a specific […] of urokinase, and the inhibitor of interest in defined dilutions overnight. Product formation was monitored at 405 nm before and after incubation in a microplate reader. IC50 was calculated by non-linear regression using SigmaPlot 11.
Urokinase-type plasminogen activator (uPA) causes the degradation of the extracellular matrix and plays a critical role in tumor invasion and metastasis, [73]. It was shown that activation of receptor-bound pro-uPA is affected by matriptase-1, which results in a decreased ability of uPAexpressing tumor cells to invade an extracellular matrix layer upon inhibition of membrane-bound matriptase-1 [72].
For the indirect determination of the IC50 of SOTI Var. 1 and MCoTI Var. 4 on the surface of these cancer cells, the turnover of an uPA substrate was monitored. Pro-uPA is activated through non-inhibited matriptase-1 and substrate turnover was measured and compared to the previously reported small molecule inhibitor S1 of matriptase-1 (Figure 4). In this experimental setting, the MCoTI-based inhibitor Var. […] 4 in this assay.
Figure 4 Inhibition assay of uPA activation by matriptase-1 on the surface of PC-3 cells. Depicted is the logarithmic inhibitor concentration against the absorption at 405 TEXT PRINTED IN THE PICTURE: MCoTI Var.

[3] = substrate-independent Ki from Ki app (Morrison equation) and Km, 250 µM substrate, preincubation 30 min RT, read over 30 min, triplicate, read-out: Ki (Matriptase-1)
[4] = apparent inhibition constant (Morrison equation), MCoTI variants isolated from M. cochinchinensis seeds, oMCoTI-II synthetic, read-out: Kiapp towards matriptase-1

Structure (SMILES)	Ki [1]	Ki (Trypsin) [1]	Ki (Human matriptase-1; [3])	Ki (Matriptase-1) (Human matriptase-1; substrate-independent Ki from Ki app (Morrison equation) and Km, 250 µM substrate, preincubation 30 min RT, read over 30 min, triplicate)	inhibition of matriptase-1 or uPA in the PC-3 assay [2]	Ki (Human matriptase-1; [4])
CC[C@H](C)[C@@H]1NC(=O)[C@H](C)NC(=O)CNC(=O)[C@H](CO)NC(=O)[C@@H]2CCCN2C(=O)[C@H](CO)NC(=O)[C@@H](NC(=O)[C@H](CCCCN)NC(=O)[C@H](CC(=O)O)NC(=O)[C@@H](N)CCC(=O)O)CSSC[C@@H]2NC(=O)[C@@H]3CSSC[C@@H](C(=O)N[C@@H](CCC(N)=O)C(=O)O)NC(=O)[C@H](CCCNC(=N)N)NC(=O)[C@H](Cc4c[nH]c5ccccc45)NC(=O)[C@H](CO)NC(=O)[C@H](CCCNC(=N)N)NC(=O)[C@H](C)NC(=O)[C@H](CCCNC(=N)N)NC(=O)[C@H](CCCNC(=N)N)NC(=O)[C@H](CC(N)=O)NC(=O)[C@H](CC(C)C)NC(=O)[C@H](C(C)C)NC(=O)[C@H](CSSC[C@H](NC1=O)C(=O)N[C@@H](CO)C(=O)NCC(=O)N[C@@H](Cc1ccccc1)C(=O)NCC(=O)N1CCC[C@H]1C(=O)N1CCC[C@H]1C(=O)N[C@@H](CCC(=O)O)C(=O)N[C@@H](CCC(N)=O)C(=O)N3)NC(=O)[C@H](C)NC(=O)CNC(=O)[C@H](CO)NC2=O [SOTI Var. 1] (H-EDKCSPSGAICSGFGPPEQCCSGACVLNRRARSWRCQ-OH; disulfide 4-21, 11-25, 20-36)	> 1000 nM	total loss of trypsin inhibition	28.9 ± 3.5 nM	–	–	–
CC[C@H](C)[C@@H]1NC(=O)[C@H](C)NC(=O)CNC(=O)[C@H](CO)NC(=O)[C@@H]2CCCN2C(=O)[C@H](CO)NC(=O)[C@@H](NC(=O)[C@H](CCCCN)NC(=O)[C@H](CC(=O)O)NC(=O)[C@@H](N)CCC(=O)O)CSSC[C@@H]2NC(=O)[C@@H]3CSSC[C@@H](C(=O)N[C@@H](CCC(N)=O)C(=O)O)NC(=O)[C@H](C(C)C)NC(=O)[C@H](Cc4ccccc4)NC(=O)[C@H]([C@@H](C)CC)NC(=O)[C@H](CCCNC(=N)N)NC(=O)[C@H](CC(C)C)NC(=O)[C@H]([C@@H](C)CC)NC(=O)[C@@H]4CCCN4C(=O)[C@H](Cc4c[nH]cn4)NC(=O)[C@@H]4CCCN4C(=O)[C@H](C(C)C)NC(=O)[C@H](CSSC[C@H](NC1=O)C(=O)N[C@@H](CO)C(=O)NCC(=O)N[C@@H](Cc1ccccc1)C(=O)NCC(=O)N1CCC[C@H]1C(=O)N1CCC[C@H]1C(=O)N[C@@H](CCC(=O)O)C(=O)N[C@@H](CCC(N)=O)C(=O)N3)NC(=O)[C@H](C)NC(=O)CNC(=O)[C@H](CO)NC2=O [SOTI-III wt, Spinacia oleracea trypsin inhibitor III, reference compound] (H-EDKCSPSGAICSGFGPPEQCCSGACVPHPILRIFVCQ-OH; disulfide 4-21, 11-25, 20-36)	60.6 ± 8.4 nM	–	> 1000 nM	did not display measurable inhibitory activity	no inhibition	–
CC[C@H](C)[C@@H]1NC(=O)[C@@H]2CSSC[C@@H]3NC(=O)[C@H](C(C)C)NC(=O)CNC(=O)CNC(=O)C[C@@H](C(=O)O)NC(=O)[C@H](CO)NC(=O)CNC(=O)[C@H](CO)NC(=O)CNC(=O)[C@@H]4CSSC[C@H](NC(=O)[C@H](CC(=O)O)NC(=O)[C@H](CO)NC(=O)[C@H](CC(=O)O)NC(=O)[C@H](CCCNC(=N)N)NC(=O)[C@H](CCCNC(=N)N)NC(=O)[C@H](CSSC[C@H](NC1=O)C(=O)N[C@@H](CCCNC(=N)N)C(=O)NCC(=O)N[C@@H](CC(N)=O)C(=O)NCC(=O)N[C@@H](Cc1ccc(O)cc1)C(=O)N4)NC(=O)[C@H](CCCCN)NC(=O)[C@H](CCCCN)NC(=O)[C@H](CC(C)C)NC(=O)[C@H]([C@@H](C)CC)NC(=O)[C@H](CCCCN)NC(=O)[C@@H]1CCCN1C3=O)C(=O)N1CCC[C@H]1C(=O)NCC(=O)N[C@@H](C)C(=O)N2 [MCoTI-II (ß-asp), reference compound] (GGVCPKILKKCRRDSDCPGACICRGNGYCGSGSD-OH; disulfide 4-21, 11-23, 17-29; lactam N-34)	–	–	–	–	–	388 ± 32 nM
CC[C@H](C)[C@@H]1NC(=O)[C@@H]2CSSC[C@H](NC(=O)[C@@H](NC(=O)CNC(=O)[C@@H](N)CO)C(C)C)C(=O)N3CCC[C@H]3C(=O)N[C@@H](CCCCN)C(=O)N[C@@H]([C@@H](C)CC)C(=O)N[C@@H](CC(C)C)C(=O)N[C@@H](CCCCN)C(=O)N[C@@H](CCCCN)C(=O)N[C@H]3CSSC[C@H](NC1=O)C(=O)N[C@@H](CCCNC(=N)N)C(=O)NCC(=O)N[C@@H](CC(N)=O)C(=O)NCC(=O)N[C@@H](Cc1ccc(O)cc1)C(=O)N[C@H](C(=O)NCC(N)=O)CSSC[C@H](NC(=O)[C@H](CC(=O)O)NC(=O)[C@H](CO)NC(=O)[C@H](CC(=O)O)NC(=O)[C@H](CCCNC(=N)N)NC(=O)[C@H](CCCNC(=N)N)NC3=O)C(=O)N1CCC[C@H]1C(=O)NCC(=O)N[C@@H](C)C(=O)N2 [oMCoTI-II, reference compound] (H-SGVCPKILKKCRRDSDCPGACICRGNGYCG-NH2; disulfide 4-21, 11-23, 17-29)	–	–	–	–	–	276 ± 13 nM
CC[C@H](C)[C@@H]1NC(=O)[C@@H]2CSSC[C@H](NC(=O)[C@H](CCCNC(=N)N)NC(=O)[C@H](CCCNC(=N)N)NC(=O)[C@@H](N)CC(N)=O)C(=O)N3CCC[C@H]3C(=O)N[C@@H](CCCCN)C(=O)N[C@@H](C(C)C)C(=O)N[C@@H](CC(C)C)C(=O)N[C@@H](CCCCN)C(=O)N[C@@H](C)C(=O)N[C@H]3CSSC[C@H](NC1=O)C(=O)N[C@@H](CCCNC(=N)N)C(=O)NCC(=O)N[C@@H](CC(N)=O)C(=O)NCC(=O)N[C@@H](Cc1ccc(O)cc1)C(=O)N[C@H](C(=O)NCC(N)=O)CSSC[C@H](NC(=O)[C@H](CC(=O)O)NC(=O)[C@H](CO)NC(=O)[C@H](CC(=O)O)NC(=O)[C@H](CCCNC(=N)N)NC(=O)[C@H](CCCNC(=N)N)NC3=O)C(=O)N1CCC[C@H]1C(=O)NCC(=O)N[C@@H](C)C(=O)N2 [MCoTI Var. 2]	19.2 ± 2.8 nM	–	3.3 ± 0.4 nM	–	–	–
CC[C@H](C)[C@H](N)C(=O)NCC(=O)N[C@H](C(=O)N[C@H]1CSSC[C@@H]2NC(=O)[C@H](C)NC(=O)CNC(=O)[C@@H]3CCCN3C(=O)[C@@H]3CSSC[C@@H](C(=O)NCC(N)=O)NC(=O)[C@H](Cc4ccc(O)cc4)NC(=O)CNC(=O)[C@H](CC(N)=O)NC(=O)CNC(=O)[C@H](CCCNC(=N)N)NC(=O)[C@H](CSSC[C@H](NC(=O)[C@H](C)NC(=O)[C@H](CCCNC(=N)N)NC(=O)[C@H](CC(C)C)NC(=O)[C@H](CC(C)C)NC(=O)[C@H](CCCCN)NC(=O)[C@@H]4CCCN4C1=O)C(=O)N[C@@H](CCCNC(=N)N)C(=O)N[C@@H](CCCNC(=N)N)C(=O)N[C@@H](CC(=O)O)C(=O)N[C@@H](CO)C(=O)N[C@@H](CC(=O)O)C(=O)N3)NC(=O)[C@H]([C@@H](C)CC)NC2=O)C(C)C [MCoTI Var. 1] (H-IGVCPKLLRACRRDSDCPGACICRGNGYCG-NH2; disulfide 4-21, 11-23, 17-29)	31.7 ± 4.3 nM	–	4.4 ± 0.6 nM	–	–	–
